# Measurements reported in patent publication US5252558A, “Pentapeptide having specific inhibiting effect on epidermal cell proliferation, the salts thereof, pharmaceutical compositions comprising the same and a process for the preparation of the pentapeptide and the pharmaceutical compositions” (Richter Gedeon Vegyeszeti Gyar RT, priority 1990, dated 1993).
# Residues, ends and D or L forms follow the SMILES beside them. *: point of attachment. X1 = O=C1CCC[C@@H](C(=O)*)N1
# Test system: cytoblastic medulla cells
# Assay: 51Cr-emission test (in vitro toxicity)
# Type: cell-based, rat
# Procedure: The in vitro toxicity of the new compound was examined by ^51 Cr emission test.
# 6×10^7 cytoblastic medulla cells to be labelled were centrifuged (1000 rotations/minute for 7 minutes), then the cells were suspended in 1 ml of TC-199 Parker medium (product of OKI) and incubated with ^51 Cr ray source of an activity of 3.7×10^7 Bq (1 mCi) at a temperature of 37° C. for 1 hour, then the labelled cells were washed with 60 ml of medium. When the evaluation was carried out, the cell suspension was centrifuged after the treatment with the oligopeptide and the radioactivity of the supernatant was measured.
# When the ^51 Cr emission test was evaluated, the cell suspension was treated with the oligopeptide and centrifuged, then the activity of the supernatant was determined by a Packard apparatus.
smiles,measurement,setting,value
"O=C(O)CC[C@H](NC(=O)[C@@H]1CCCC(=O)N1)C(=O)N[C@@H](CC(=O)O)C(=O)N[C@@H](CO)C(=O)NCC(=O)O [pAad-EI, Xaa Glu Asp Ser Gly] (X1-EDSG-OH)","51Cr-emission of cytoblastic medulla cells, cpm","concentration = 10^-8 mole/l, control 155,849","148,303 cpm"
same,toxicity by 51Cr emission (in words),isotope emission compared to the control,not toxic
